Results reported in patent US20250230138A1, “COMPOUNDS HAVING A T-STRUCTURE FORMED BY AT LEAST FOUR CYCLES FOR USE IN THE TREATMENT OF CANCER AND OTHER INDICATIONS” (TheRas, Inc., priority 2022, published 2025).
Read-outs that look alike come from different tables or passages of the source.

Columns and labels:
pAKT in BT474 cells = test: Cell-based pAKT HTRF assay in BT474 cells; details: BT474 cells, 4 hr incubation, read-out: pAKT inhibition IC50 in BT474 cells
Method in brief: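 Cells are seeded on day 1 and dosed on day 2 with a 9-point curve (3 μM top, 3-fold). After 4 hr they are lysed and the lysate is mixed with d2- and Eu Cryptate-labelled antibodies. HTRF is read after 4–24 h at room temperature.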

[1] = target: Cys242 in human PIK3CA (157-299) (Homo sapiens (Human), UniProt P42336); test: Covalent modification assay using MALDI-TOF MS; type: biochemical; details: 4 h reaction time point
Sequence of Cys242 in human PIK3CA (157-299) (P42336 157-299): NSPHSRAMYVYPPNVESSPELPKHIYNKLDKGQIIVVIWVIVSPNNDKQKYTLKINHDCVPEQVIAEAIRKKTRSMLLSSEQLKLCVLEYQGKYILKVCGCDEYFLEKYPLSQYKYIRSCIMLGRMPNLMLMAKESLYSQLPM
Method in brief: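 PIK3CA (157-299) at 3.33 μM or 1 μM in 20 mM HEPES, 150 mM NaCl, 2 mM MgCl2, pH 7.3 was incubated with compound (from 10 mM DMSO stocks) in the dark at room temperature for 15 min, 30 min, 2 h or 4 h. Linear-mode MALDI-TOF peak heights gave percent modification.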

[2] = 3.33 μM protein target, 1:7.5 protein to compound ratio (compounds 1-852)
[3] = 1 μM protein target, 1:5 protein to compound ratio (compounds 853-1279)
[4] = Homo sapiens, BT-474, Compounds 10-999

## C=CC(=O)N1CCn2nc(-c3nc(-c4cnc5c(c4)CN(C)C5=O)c4ccsc4c3-c3c(F)cc(F)cc3OCCOC)cc2C1C (stereo not drawn) [Compound 553]
pAKT in BT474 cells; Compounds 10-999
  IC50: < 100 nM
[1]; [2]
  % of modification: A (percent of modification of PIK3CA protein ≥75%)

## C=CC(=O)N1CCn2nc(-c3nc(-c4ccc5c(c4)CCN(C)C5)c4ccsc4c3-c3c(F)cc(F)cc3OC[C@@H](C)O)cc2[C@@H]1C [Compound 546]
pAKT in BT474 cells; Compounds 10-999
  IC50: < 100 nM
[1]; [2]
  % of modification: A (percent of modification of PIK3CA protein ≥75%)

## C=CC(=O)N1CC(n2cc(-c3nc(-c4ccc5c(c4)CCNC5)c4ccsc4c3-c3ccc(F)cc3OC(F)F)cn2)C1 [Compound 136]
pAKT in BT474 cells; Compounds 10-999
  IC50: 100 to 1000 nM
[1]; [2]
  % of modification: A (percent of modification of PIK3CA protein ≥75%)

## C=CC(=O)N1Cc2cc(-c3nc(-c4ccc5c(c4)ncn5C)c4ccsc4c3-c3c(F)cc(F)cc3OCCOC)nn2C[C@H]1C [Compound 669]
pAKT in BT474 cells; Compounds 10-999
  IC50: < 100 nM
[1]; [2]
  % of modification: A (percent of modification of PIK3CA protein ≥75%)

## C=CC(=O)N1CCn2nc(-c3nc(-c4cnc5c(c4)CN(C)CC54CC4)c4ccsc4c3-c3c(F)cc(F)cc3OCCOC)cc2[C@H]1C [Compound 1163]
pAKT in BT474 cells; Compounds 1000-1279
  IC50: < 100 nM
[1]; [3]
  % of modification: A (percent of modification of PIK3CA protein ≥75%)

## C=CC(=O)N1CCn2nc(-c3nc(-c4ccnc(N)c4)c4ccsc4c3-c3ccc(F)cc3OC(F)F)nc2C1 [Compound 217]
pAKT in BT474 cells; Compounds 10-999
  IC50: < 100 nM
[1]; [2]
  % of modification: A (percent of modification of PIK3CA protein ≥75%)

## C=CC(=O)N1CCn2nc(-c3nc(-c4ccc5c(c4)CNC(=O)C5)c4ccsc4c3-c3c(F)cc(F)cc3OC[C@@H](C)O)cc2[C@H]1C [Compound 896]
pAKT in BT474 cells; Compounds 10-999
  IC50: < 100 nM
[1]; [3]
  % of modification: A (percent of modification of PIK3CA protein ≥75%)

## C=CC(=O)N1Cc2cc(-c3nc(-c4ccc5c(c4)CCN(C)C5)c4ccsc4c3-c3c(F)cc(F)cc3OC(CF)CF)nn2C[C@H]1C [Compound 634, 1-[(6R)-2-[7-[2,4-difluoro-6-[2-fluoro-1-(fluoromethyl)ethoxy]phenyl]-4-(2-methyl-3,4-dihydro-1H-isoquinolin-6-yl)thieno[3,2-c]pyridin-6-yl]-6-methyl-6,7-dihydro-4H-pyrazolo[1,5-a]pyrazin-5-yl]prop-2-en-1-one]
pAKT in BT474 cells; [4]
  IC50: < 100 nM
[1]; [2]
  % of modification: A (percent of modification of PIK3CA protein ≥75%)

## C=CC(=O)N1CCn2nc(-c3cc(-c4cnn(C)c4)cnc3-c3ccc(F)cc3OCCOC)cc2C1 [Compound 281, 1-[2-[2-[4-fluoro-2-(2-methoxyethoxy)phenyl]-5-(1-methylpyrazol-4-yl)-3-pyridyl]-6,7-dihydro-4H-pyrazolo[1,5-a]pyrazin-5-yl]prop-2-en-1-one]
pAKT in BT474 cells; [4]
  IC50: > 3000 nM
[1]; [2]
  % of modification: C (25%≤percent of modification <50%)

## C=CC(=O)N1Cc2cc(-c3nc(-c4cc(C)ncn4)c4ccsc4c3-c3c(F)cc(F)cc3OCCOC)nn2CC1C (stereo not drawn) [Compound 850]
pAKT in BT474 cells; Compounds 10-999
  IC50: < 100 nM
[1]; [2]
  % of modification: A (percent of modification of PIK3CA protein ≥75%)

## C=CC(=O)N1CCn2nc(-c3nc(-c4ccc5c(c4)ncn5C)c4ccsc4c3-c3c(F)cc(F)cc3OCCO)cc2[C@H]1C [Compound 775]
pAKT in BT474 cells; Compounds 10-999
  IC50: < 100 nM
[1]; [2]
  % of modification: A (percent of modification of PIK3CA protein ≥75%)

## C=CC(=O)N1CCn2nc(-c3nc(-c4ccc5c(c4)CCNC5)c4ccsc4c3-c3ccc(F)cc3OCC3CCNC(=O)C3)cc2C1 (stereo not drawn) [Compound 261]
pAKT in BT474 cells; Compounds 10-999
  IC50: < 100 nM
[1]; [2]
  % of modification: A (percent of modification of PIK3CA protein ≥75%)

## C=CC(=O)N1CCn2nc(-c3nc(-c4ccc5c(c4)CNC(=O)C5)c4ccsc4c3-c3c(F)cc(F)cc3OCCO)cc2[C@H]1C [Compound 890]
pAKT in BT474 cells; Compounds 10-999
  IC50: < 100 nM
[1]; [3]
  % of modification: A (percent of modification of PIK3CA protein ≥75%)

## C=C(F)C(=O)N1Cc2cc(-c3nc(-c4ccc5c(c4)CCN(C)C5)c4ccsc4c3-c3c(F)cc(F)cc3OC(C)C)nn2CC1C (stereo not drawn) [Compound 473]
pAKT in BT474 cells; Compounds 10-999
  IC50: 100 to 1000 nM
[1]; [2]
  % of modification: D (percent of modification <25%)

## C=CC(=O)N1Cc2cc(-c3nc(-c4ccc5[nH]cnc5c4)c4ccsc4c3-c3c(F)cc(F)cc3OCCOC)nn2C[C@H]1C [Compound 720]
pAKT in BT474 cells; Compounds 10-999
  IC50: < 100 nM
[1]; [2]
  % of modification: A (percent of modification of PIK3CA protein ≥75%)

## C=CC(=O)N1CCn2nc(-c3nc(-c4cc(F)c(=O)n(CC(F)F)c4)c4ccsc4c3-c3c(F)cc(F)cc3OCCOC)cc2C1C (stereo not drawn) [Compound 1036]
pAKT in BT474 cells; Compounds 1000-1279
  IC50: < 100 nM
[1]; [3]
  % of modification: A (percent of modification of PIK3CA protein ≥75%)

## C=CC(=O)N1CCc2ccc(-c3nc(-c4ccc5c(c4)CNC5=O)c4ccsc4c3-c3c(F)cc(F)cc3OCCOC)cc2C1 (single isomer, unassigned) [Compound 887]
pAKT in BT474 cells; Compounds 10-999
  IC50: < 100 nM
[1]; [3]
  % of modification: A (percent of modification of PIK3CA protein ≥75%)

## C=CC(=O)N1CCc2nc(-c3nc(-c4ccc5c(c4)CCN(C)C5)c4ccsc4c3-c3c(F)cc(F)cc3OC(F)F)sc2C1 [Compound 475]
pAKT in BT474 cells; Compounds 10-999
  IC50: > 3000 nM
[1]; [2]
  % of modification: B (50%<percent of modification <75%)

## C=CC(=O)N1CCc2ccc(-c3nc(-c4cnc(N5CCN(C)CC5)nc4)c4ccsc4c3-c3c(F)cc(F)cc3OCCOC)cc2C1 [Compound 1069]
pAKT in BT474 cells; Compounds 1000-1279
  IC50: > 1000 nM
[1]; [3]
  % of modification: D (percent of modification <25%)

## C=CC(=O)N1CCn2nc(-c3nc(-c4ccc5cnn(C)c(=O)c5c4)c4ccsc4c3-c3c(F)cc(F)cc3OCCOC)cc2[C@@H]1C [Compound 898]
pAKT in BT474 cells; Compounds 10-999
  IC50: < 100 nM
[1]; [3]
  % of modification: A (percent of modification of PIK3CA protein ≥75%)

## C=CC(=O)N1CCc2ncc(-c3nc(-c4ccc5nn(C)cc5c4)c4ccsc4c3-c3c(F)cc(F)cc3OCCOC)cc2C1 [Compound 945]
pAKT in BT474 cells; Compounds 10-999
  IC50: < 100 nM
[1]; [3]
  % of modification: A (percent of modification of PIK3CA protein ≥75%)

## C=CC(=O)N1CCn2nc(-c3nc(-c4ccc5c(c4)CCNC5=O)c4ccsc4c3-c3ccc(F)cc3OC(C)C)nc2C1 [Compound 219]
pAKT in BT474 cells; Compounds 10-999
  IC50: < 100 nM
[1]; [2]
  % of modification: A (percent of modification of PIK3CA protein ≥75%)

## C=CC(=O)N1CCn2nc(-c3nc(-c4ccc5c(c4)NC(=O)CN(C)C5)c4ccsc4c3-c3c(F)cc(F)cc3OCCO)cc2C1C (stereo not drawn) [Compound 1195]
pAKT in BT474 cells; Compounds 1000-1279
  IC50: < 100 nM
[1]; [3]
  % of modification: A (percent of modification of PIK3CA protein ≥75%)

## C=CC(=O)N1CCc2nc(-c3nc(-c4ccc5c(c4)CS(=N)(=O)C5)c4ccsc4c3-c3ccc(F)cc3OCCOC)sc2C1 (stereo not drawn) [Compound 151, 1-[2-[7-[4-fluoro-2-(2-methoxyethoxy)phenyl]-4-(2-imino-2-oxo-1,3-dihydro-2-benzothiophen-5-yl)thieno[3,2-c]pyridin-6-yl]-6,7-dihydro-4H-thiazolo[5,4-c]pyridin-5-yl]prop-2-en-1-one]
pAKT in BT474 cells; [4]
  IC50: < 100 nM
[1]; [2]
  % of modification: A (percent of modification of PIK3CA protein ≥75%)

## C=CC(=O)N1CCc2ncc(-c3nc(-c4cccc(C#N)c4)c4ccsc4c3-c3c(F)cc(F)cc3OC(C)C)cc2C1 [Compound 381]
pAKT in BT474 cells; Compounds 10-999
  IC50: < 100 nM
[1]; [2]
  % of modification: A (percent of modification of PIK3CA protein ≥75%)

## C=CC(=O)N1Cc2cc(-c3nc(-c4ccc5c(c4)C(=O)NC5)c4ccsc4c3-c3c(F)cc(F)cc3OC)nn2C[C@H]1C [Compound 837]
pAKT in BT474 cells; Compounds 10-999
  IC50: < 100 nM
[1]; [2]
  % of modification: A (percent of modification of PIK3CA protein ≥75%)

## C=CC(=O)N1CCn2nc(-c3nc(-c4ccc(OCCN(C)C)cc4)c4ccsc4c3-c3c(F)cc(F)cc3OCCOC)cc2C1C (stereo not drawn) [Compound 993]
pAKT in BT474 cells; Compounds 10-999
  IC50: < 100 nM
[1]; [3]
  % of modification: A (percent of modification of PIK3CA protein ≥75%)

## C=C(F)C(=O)N1CCn2nc(-c3nc(-c4cnc5c(c4)CN(C)CC5)c4ccsc4c3-c3c(F)cc(F)cc3OC(C)C)nc2C1 [Compound 310]
pAKT in BT474 cells; Compounds 10-999
  IC50: < 100 nM
[1]; [2]
  % of modification: A (percent of modification of PIK3CA protein ≥75%)

## C=CC(=O)N1Cc2cc(-c3nc(-c4cnn(C)c4)c4ccsc4c3-c3c(F)cc(F)cc3OC(C)C)nn2C[C@H]1C [Compound 456, 1-((R)-2-((R)-7-(2,4-difluoro-6-isopropoxyphenyl)-4-(1-methyl-1H-pyrazol-4-yl)thieno[3,2-c]pyridin-6-yl)-6-methyl-6,7-dihydropyrazolo[1,5-a]pyrazin-5(4H)-yl)prop-2-en-1-one]
pAKT in BT474 cells; Compounds 10-999
  IC50: > 3000 nM
[1]; [2]
  % of modification: D (percent of modification <25%)

## C=CC(=O)N1CCn2nc(-c3nc(-c4cncc(OC5CN(C)C5)c4)c4ccsc4c3-c3c(F)cc(F)cc3OCCOC)cc2C1C (stereo not drawn) [Compound 1203]
pAKT in BT474 cells; Compounds 1000-1279
  IC50: < 100 nM
[1]; [3]
  % of modification: A (percent of modification of PIK3CA protein ≥75%)
